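Protocol summary: plate cells (96-well), add compound at 5 concentrations, incubate 48 h, interpolate endpoints linearly. GI50 is the concentration that inhibits growth by half.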 Active and inactive are the calls of the source. Cut-off read from the data, not from the text of the source: active = GI50 up to about 1.1 µM and inactive = higher.
Assays:
Assay in all cases: NCI-60 cell line screen, 48 h
SK-MEL-28 = test system: SK-MEL-28
HCT-116 = test system: HCT-116
MDA-MB-231 = test system: MDA-MB-231
MOLT-4 = test system: MOLT-4
HOP-92 = test system: HOP-92
A549 = test system: A549
OVCAR-8 = test system: OVCAR-8
SK-OV-3 = test system: SK-OV-3
HL-60 = test system: HL-60
COLO 205 = test system: COLO 205
PC-3 = test system: PC-3
HOP-62 = test system: HOP-62
MDA-N = test system: MDA-N
SK-MEL-5 = test system: SK-MEL-5
NCI/ADR-RES = test system: NCI/ADR-RES
MDA-MB-435 = test system: MDA-MB-435
NCI-H226 = test system: NCI-H226
SW-620 = test system: SW-620
HT-29 = test system: HT-29
T47D = test system: T47D
NCI-H23 = test system: NCI-H23
BT-549 = test system: BT-549
MCF7 = test system: MCF7
NCI-H522 = test system: NCI-H522
RPMI-8226 = test system: RPMI-8226
SR = test system: SR
IGROV-1 = test system: IGROV-1
SF-295 = test system: SF-295
KM12 = test system: KM12
UACC-257 = test system: UACC-257
A498 = test system: A498
HCC 2998 = test system: HCC 2998
HCT-15 = test system: HCT-15
K562 = test system: K562
Malme-3M = test system: Malme-3M
SNB-19 = test system: SNB-19
RXF 393 = test system: RXF 393
UACC-62 = test system: UACC-62
786-0 = test system: 786-0
M14 = test system: M14
UO-31 = test system: UO-31
U-251 = test system: U-251
TK-10 = test system: TK-10
EKVX = test system: EKVX
OVCAR-4 = test system: OVCAR-4
SN12C = test system: SN12C
OVCAR-5 = test system: OVCAR-5
DU-145 = test system: DU-145
LOX IMVI = test system: LOX IMVI
SK-MEL-2 = test system: SK-MEL-2
ACHN = test system: ACHN
CAKI-1 = test system: CAKI-1
SF-268 = test system: SF-268
OVCAR-3 = test system: OVCAR-3
CCRF-CEM = test system: CCRF-CEM
NCI-H460 = test system: NCI-H460
SNB-75 = test system: SNB-75
Hs-578T = test system: Hs-578T
SF-539 = test system: SF-539

## Oc1ccc2c3c1OC1c4[nH]c5c(c4CC4(O)C(C2)N(CC2CC2)CC[C@]314)CC1(O)C2Cc3ccc(O)c4c3[C@@]1(CCN2CC1CC1)C5O4 (stereo partly specified)
SK-MEL-28
  GI50: 20.1 µM (inactive)
HCT-116
  GI50: 17.5 µM (inactive)
MDA-MB-231
  GI50: 24.4 µM (inactive)
MOLT-4
  GI50: 22.4 µM (inactive)
HOP-92
  GI50: 23 µM (inactive)
A549
  GI50: 18.6 µM (inactive)
OVCAR-8
  GI50: 51.9 µM (inactive)
SK-OV-3
  GI50: 43 µM (inactive)
HL-60
  GI50: 21.9 µM (inactive)
COLO 205
  GI50: 18.1 µM (inactive)
PC-3
  GI50: 43.5 µM (inactive)
HOP-62
  GI50: 77.3 µM (inactive)
MDA-N
  GI50: 18.4 µM (inactive)
SK-MEL-5
  GI50: 44 µM (inactive)
NCI/ADR-RES
  GI50: > 100 µM (inactive)
MDA-MB-435
  GI50: 19.9 µM (inactive)
NCI-H226
  GI50: 27.8 µM (inactive)
SW-620
  GI50: 21.9 µM (inactive)
HT-29
  GI50: 20 µM (inactive)
T47D
  GI50: 18.6 µM (inactive)
NCI-H23
  GI50: > 100 µM (inactive)
BT-549
  GI50: > 100 µM (inactive)
MCF7
  GI50: 34.7 µM (inactive)
NCI-H522
  GI50: 19.3 µM (inactive)
RPMI-8226
  GI50: 25.2 µM (inactive)
SR
  GI50: 27.4 µM (inactive)
IGROV-1
  GI50: > 100 µM (inactive)
SF-295
  GI50: 19.6 µM (inactive)
KM12
  GI50: 17.5 µM (inactive)
UACC-257
  GI50: 20.3 µM (inactive)
A498
  GI50: 17.5 µM (inactive)
HCC 2998
  GI50: 18.7 µM (inactive)
HCT-15
  GI50: > 100 µM
K562
  GI50: 25.4 µM (inactive)
Malme-3M
  GI50: 17 µM (inactive)
SNB-19
  GI50: 24.3 µM (inactive)
RXF 393
  GI50: 18.1 µM (inactive)
UACC-62
  GI50: 20.4 µM (inactive)
786-0
  GI50: 21.3 µM (inactive)
M14
  GI50: 17.5 µM (inactive)
UO-31
  GI50: > 100 µM (inactive)
U-251
  GI50: 19.9 µM (inactive)
TK-10
  GI50: 21.2 µM (inactive)
EKVX
  GI50: 35.6 µM (inactive)
OVCAR-4
  GI50: 29.8 µM (inactive)
SN12C
  GI50: 35 µM (inactive)
OVCAR-5
  GI50: 28 µM (inactive)
DU-145
  GI50: 37.2 µM (inactive)
LOX IMVI
  GI50: 27 µM (inactive)
SK-MEL-2
  GI50: 24.2 µM (inactive)
ACHN
  GI50: > 100 µM (inactive)
CAKI-1
  GI50: > 100 µM (inactive)
SF-268
  GI50: 19.8 µM (inactive)
OVCAR-3
  GI50: 17.6 µM (inactive)

## CO/C(=N\N=C\c1ccccc1F)c1ccncc1
HCT-116
  GI50: > 10 µM (inactive)
MDA-MB-231
  GI50: > 10 µM (inactive)
MOLT-4
  GI50: > 10 µM (inactive)
HOP-92
  GI50: > 10 µM (inactive)
A549
  GI50: > 10 µM (inactive)
OVCAR-8
  GI50: > 10 µM (inactive)
HL-60
  GI50: > 10 µM (inactive)
COLO 205
  GI50: > 10 µM (inactive)
PC-3
  GI50: > 10 µM (inactive)
HOP-62
  GI50: > 10 µM (inactive)
MDA-N
  GI50: > 10 µM (inactive)
NCI/ADR-RES
  GI50: > 10 µM (inactive)
CCRF-CEM
  GI50: > 10 µM (inactive)
NCI-H460
  GI50: > 10 µM (inactive)
MDA-MB-435
  GI50: > 10 µM (inactive)
NCI-H226
  GI50: > 10 µM (inactive)
SW-620
  GI50: > 10 µM (inactive)
HT-29
  GI50: > 10 µM (inactive)
T47D
  GI50: > 10 µM (inactive)
NCI-H23
  GI50: > 10 µM (inactive)
BT-549
  GI50: > 10 µM (inactive)
MCF7
  GI50: > 10 µM (inactive)
NCI-H522
  GI50: > 10 µM (inactive)
RPMI-8226
  GI50: > 10 µM (inactive)
SR
  GI50: > 10 µM (inactive)
SF-295
  GI50: > 10 µM (inactive)
KM12
  GI50: > 10 µM (inactive)
UACC-257
  GI50: > 10 µM (inactive)
HCC 2998
  GI50: > 10 µM (inactive)
HCT-15
  GI50: > 10 µM
K562
  GI50: > 10 µM (inactive)
Malme-3M
  GI50: > 10 µM (inactive)
SNB-19
  GI50: > 10 µM (inactive)
RXF 393
  GI50: > 10 µM (inactive)
786-0
  GI50: > 10 µM (inactive)
M14
  GI50: > 10 µM (inactive)
UO-31
  GI50: > 10 µM (inactive)
U-251
  GI50: > 10 µM (inactive)
TK-10
  GI50: > 10 µM (inactive)
EKVX
  GI50: > 10 µM (inactive)
OVCAR-4
  GI50: > 10 µM (inactive)
SN12C
  GI50: > 10 µM (inactive)
OVCAR-5
  GI50: > 10 µM (inactive)
DU-145
  GI50: > 10 µM (inactive)
LOX IMVI
  GI50: > 10 µM (inactive)
SK-MEL-2
  GI50: > 10 µM (inactive)
ACHN
  GI50: > 10 µM (inactive)
CAKI-1
  GI50: > 10 µM (inactive)
SF-268
  GI50: > 10 µM (inactive)
OVCAR-3
  GI50: > 10 µM (inactive)

## CCOP(=O)(OCC)/C(C#N)=C/c1ncc[nH]1
SK-MEL-28
  GI50: > 100 µM (inactive)
HCT-116
  GI50: > 100 µM (inactive)
MDA-MB-231
  GI50: > 100 µM (inactive)
MOLT-4
  GI50: > 100 µM (inactive)
HOP-92
  GI50: > 100 µM (inactive)
A549
  GI50: > 100 µM (inactive)
OVCAR-8
  GI50: > 100 µM (inactive)
SK-OV-3
  GI50: > 100 µM (inactive)
HL-60
  GI50: > 100 µM (inactive)
SNB-75
  GI50: > 100 µM (inactive)
COLO 205
  GI50: > 100 µM (inactive)
PC-3
  GI50: > 100 µM (inactive)
HOP-62
  GI50: > 100 µM (inactive)
MDA-N
  GI50: > 100 µM (inactive)
SK-MEL-5
  GI50: > 100 µM (inactive)
Hs-578T
  GI50: > 100 µM (inactive)
NCI/ADR-RES
  GI50: > 100 µM (inactive)
CCRF-CEM
  GI50: > 100 µM (inactive)
NCI-H460
  GI50: > 100 µM (inactive)
MDA-MB-435
  GI50: > 100 µM (inactive)
NCI-H226
  GI50: > 100 µM (inactive)
SW-620
  GI50: > 100 µM (inactive)
HT-29
  GI50: > 100 µM (inactive)
NCI-H23
  GI50: > 100 µM (inactive)
BT-549
  GI50: > 100 µM (inactive)
MCF7
  GI50: > 100 µM (inactive)
NCI-H522
  GI50: > 100 µM (inactive)
RPMI-8226
  GI50: > 100 µM (inactive)
SR
  GI50: > 100 µM (inactive)
IGROV-1
  GI50: > 10 µM (inactive)
SF-295
  GI50: > 100 µM (inactive)
KM12
  GI50: > 100 µM (inactive)
UACC-257
  GI50: > 100 µM (inactive)
A498
  GI50: > 100 µM (inactive)
HCC 2998
  GI50: > 100 µM (inactive)
HCT-15
  GI50: > 10 µM
K562
  GI50: > 100 µM (inactive)
Malme-3M
  GI50: > 100 µM (inactive)
SNB-19
  GI50: > 100 µM (inactive)
RXF 393
  GI50: > 100 µM (inactive)
UACC-62
  GI50: > 100 µM (inactive)
786-0
  GI50: > 100 µM (inactive)
M14
  GI50: > 100 µM (inactive)
UO-31
  GI50: > 100 µM (inactive)
U-251
  GI50: > 100 µM (inactive)
EKVX
  GI50: > 100 µM (inactive)
OVCAR-4
  GI50: > 100 µM (inactive)
SN12C
  GI50: > 100 µM (inactive)
OVCAR-5
  GI50: > 100 µM (inactive)
DU-145
  GI50: > 100 µM (inactive)
LOX IMVI
  GI50: > 100 µM (inactive)
SK-MEL-2
  GI50: > 100 µM (inactive)
ACHN
  GI50: > 100 µM (inactive)
CAKI-1
  GI50: > 100 µM (inactive)
SF-539
  GI50: 8.32 µM (inactive)
SF-268
  GI50: > 100 µM (inactive)
OVCAR-3
  GI50: > 100 µM (inactive)
